test system: elderly mice; test: novel object recognition (NOR) test in elderly mice; type: in vivo; settings: 1 mg/kg i.p., versus vehicle
Text: FIG. 3 illustrates the evaluation of the efficacy of compound 32 (KCC2 inhibitor) to restore impaired memory in elderly mice. a) Quantification of the discrimination index of the NOR test in young (n=13) and elderly (n=10) mice (two tailed t-test, ** P<0.01). b) Quantification of the discrimination index of the NOR test in mice treated with vehicle (young, n=12, elderly, n=9) or compound 32 (young, n=10, elderly, n=6) (two-way ANOVA, Tukey post hoc test, ** P<0.01, ** P<0.001).
To evaluate memory capacity in the elderly mice, the novel object recognition (NOR) test was conducted. This test evaluates the long-term object recognition memory by measuring the capacity of the mice to recognize a novel object compared to familiar objects. […] Subsequently, to test the ability of the non-selective KCC2 inhibitor, Compound 32, to restore poor memory, the NOR test was conducted in the presence of the drug. The mice were treated with compound 32 (1 mg/kg i.p.) or with the vehicle.

Question: Which “object recognition memory (discrimination index of the NOR test)” value does the source give for `CC(=O)N1CCCC1(Cc1ccc(S(C)(=O)=O)cc1)C(=O)OCc1ccccc1` (stereo not shown) [Compound 32] here?
Answer: significantly restored

test system: mice C57BL/6J aged >24 months; test: open field test after diazepam in elderly and young mice; type: in vivo; settings: elderly mice (>24 months), diazepam 2 mg/kg, compared to elderly mice treated with vehicle or young mice treated with diazepam
Text: FIG. 2 illustrates the evaluation of the effect of benzodiazepines in elderly mice which is indicative of a potentiated GABAergic transmission. a) Quantification of the immobility time during the open field test of mice treated with vehicle (young, n=7, elderly, n=6) or diazepam (young, n=7, elderly, n=7) (two-way ANOVA, Tukey post hoc test, *** P<0.001). b) Quantification of the distance travelled during the open field test by mice treated with vehicle (young, n=7, elderly, n=6) or diazepam (young, n=7, elderly, n=7) (two-way ANOVA, Tukey post hoc test, ** P<0.01, *** P<0.001).
In fact, benzodiazepines are positive allosteric modulators of GABAAR. Benzodiazepines are commonly used as anxiolytic drugs, but can produce anxiogenic or highly sedative effects depending on the polarity of GABAergic transmission. To test the reaction of elderly mice to benzodiazepines, mice C57BL/6J aged >24 months and 2-month old controls C57BL/6J were treated with diazepam (2 mg/kg in saline solution) or vehicle (2% DMSO in saline solution). The open field test was then carried out to evaluate locomotor activity and the level of anxiety of the mice tested. […] This is indicative of an over-sedation reaction of the diazepam in the elderly mice, which may reflect the presence of hyper-inhibitory GABAergic transmission. This evidence is in accordance with the up-regulation of KCC2 (FIG. 1b).

Question: What does the source list for `CN1C(=O)CN=C(c2ccccc2)c2cc(Cl)ccc21` [diazepam]?
Answer: distance travelled during the open field test: significantly lower; immobility time during the open field test: significantly higher

target: T1, KCC2 (Homo sapiens, UniProt Q9H2X9); test: inhibitory activity measured in vitro on KCC2; type: biochemical; settings: IC50, in vitro on KCC2
T1 sequence (Q9H2X9 1-1139): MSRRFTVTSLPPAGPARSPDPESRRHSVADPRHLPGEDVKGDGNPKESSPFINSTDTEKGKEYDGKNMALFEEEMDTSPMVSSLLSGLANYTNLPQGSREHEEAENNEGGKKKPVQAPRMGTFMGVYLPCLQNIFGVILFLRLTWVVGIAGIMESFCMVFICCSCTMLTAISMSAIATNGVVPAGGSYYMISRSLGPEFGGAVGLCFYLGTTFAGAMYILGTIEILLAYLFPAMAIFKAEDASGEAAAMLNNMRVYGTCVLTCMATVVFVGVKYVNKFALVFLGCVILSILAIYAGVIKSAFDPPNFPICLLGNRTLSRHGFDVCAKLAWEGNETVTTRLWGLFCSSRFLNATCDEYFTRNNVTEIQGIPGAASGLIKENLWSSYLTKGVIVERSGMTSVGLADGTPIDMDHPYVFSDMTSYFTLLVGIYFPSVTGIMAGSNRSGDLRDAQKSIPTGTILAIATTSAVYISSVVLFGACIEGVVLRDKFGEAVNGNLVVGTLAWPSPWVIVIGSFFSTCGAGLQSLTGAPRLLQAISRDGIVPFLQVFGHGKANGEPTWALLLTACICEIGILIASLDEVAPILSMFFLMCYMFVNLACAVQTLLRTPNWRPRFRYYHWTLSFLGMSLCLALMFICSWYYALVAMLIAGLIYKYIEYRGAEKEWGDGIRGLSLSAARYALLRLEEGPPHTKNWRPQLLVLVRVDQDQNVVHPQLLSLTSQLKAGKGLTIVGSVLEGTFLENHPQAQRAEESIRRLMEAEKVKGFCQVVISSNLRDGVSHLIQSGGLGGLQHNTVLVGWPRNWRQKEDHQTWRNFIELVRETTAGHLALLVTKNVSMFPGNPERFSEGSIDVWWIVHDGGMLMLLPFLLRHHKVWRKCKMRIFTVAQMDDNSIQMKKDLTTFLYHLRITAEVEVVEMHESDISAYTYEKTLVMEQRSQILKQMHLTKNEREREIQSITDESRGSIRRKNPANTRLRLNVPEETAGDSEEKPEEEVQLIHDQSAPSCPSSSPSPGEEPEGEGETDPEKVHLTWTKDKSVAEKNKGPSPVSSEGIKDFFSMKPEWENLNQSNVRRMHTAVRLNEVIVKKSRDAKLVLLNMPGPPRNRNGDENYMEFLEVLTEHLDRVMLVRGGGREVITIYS

Question: With `CC(=O)N1CCCC1(CC1CCCCC1)C(=O)OCc1ccccc1` (stereo not shown) [Compound 24] as the compound, how does the IC50 read?
Answer: 4000 nM

same assay, conditions: in vitro on KCC2; read-out: IC50

Question: How did the IC50 turn out when `CC(=O)N1CCCC1(CCc1ccccc1)C(=O)OCc1ccccc1` (stereo not shown) [Compound 22] was run?
Answer: 8000 nM

Question: For `COc1ccc(CC2(C(=O)OCc3ccccc3)CCCN2C(C)=O)cc1` (stereo not shown) [Compound 28], which IC50 is on record?
Answer: 400 nM

Question: With `O=C(C1CC1)N1CCCC1(Cc1ccccc1)C(=O)OCc1ccccc1` (stereo not shown) [Compound 61] as the compound, how does the IC50 read?
Answer: 320 nM

Question: `CC(=O)N1CCCC1(Cc1ccc(C)cc1)C(=O)OCc1ccccc1` (stereo not shown) [Compound 27] was tested. Which IC50 did it give?
Answer: 790 nM

Question: How did the IC50 turn out when `CC(=O)N1CCCC1(Cc1ccccc1)C(=O)CCc1ccccc1` (stereo not shown) [Compound 63] was run?
Answer: 300 nM

Question: For `CC(=O)N1CCCC1(Cc1ccccc1)C(=O)OCc1ccncc1` (stereo not shown) [Compound 48], which IC50 is on record?
Answer: > 100000 nM

Question: With `CC(=O)N1CCCC1(Cc1ccccc1)C(=O)OC(C)c1ccccc1` (stereo not shown) [Compound 45] as the compound, how does the IC50 read?
Answer: 4000 nM

Question: With `CC(=O)N1CCCC1(Cc1cccc(C#N)c1)C(=O)OCc1ccccc1` (stereo not shown) [Compound 34] as the compound, how does the IC50 read?
Answer: 320 nM

Question: `CS(=O)(=O)N1CCCC1(Cc1ccccc1)C(=O)OCc1ccccc1` (stereo not shown) [Compound 57] was tested. Which IC50 did it give?
Answer: 1600 nM

Question: Which IC50 does the source give for `CC(=O)N1CCCC1(Cc1ccccc1)c1nc(-c2ccccc2)co1` (stereo not shown) [Compound 68] here?
Answer: 12600 nM

Question: `CCC(=O)N1CCCC1(Cc1ccccc1)C(=O)OCc1ccccc1` (stereo not shown) [Compound 60] was tested. Which IC50 did it give?
Answer: 1200 nM

Question: How did the IC50 turn out when `CC(=O)N1CCCC1(Cc1ccccc1)C(=O)OCc1ccc(Cl)cc1` (stereo not shown) [Compound 51] was run?
Answer: 1300 nM

Question: How did the IC50 turn out when `CC(=O)N1c2ccccc2CC1(Cc1ccccc1)C(=O)OCc1ccccc1` (stereo not shown) [Compound 65] was run?
Answer: 200 nM

Question: How did the IC50 turn out when `CC(=O)N1CCCC1(Cc1ccc(C#N)cc1)C(=O)OCc1ccccc1` (stereo not shown) [Compound 33] was run?
Answer: 160 nM

Question: Which IC50 does the source give for `CC(=O)N1CCCC1(Cc1ccc(F)c(C(F)(F)F)c1)C(=O)OCc1ccccc1` (stereo not shown) [Compound 38] here?
Answer: 60 nM

Question: Which IC50 does the source give for `CC(=O)N1CCCC1(Cc1ccc(F)cc1)C(=O)CCc1ccc(F)cc1` (stereo not shown) [Compound 64] here?
Answer: 200 nM

Question: For `CC(=O)N1CCCC1(Cc1ccc(Cl)cc1)C(=O)OCc1ccccc1` (stereo not shown) [Compound 31], which IC50 is on record?
Answer: 320 nM

Question: Which IC50 does the source give for `CC(=O)N1CCCC1(Cc1ccccc1)C(=O)OCc1ccccc1` (stereo not shown) [Compound 21] here?
Answer: 790 nM

Question: `CC(=O)N1CCCC1(Cc1ccccc1)C(=O)OCc1ccc(S(C)(=O)=O)cc1` (stereo not shown) [Compound 54] was tested. Which IC50 did it give?
Answer: > 100000 nM

Question: With `CC(=O)N1CCCC1(Cc1ccc(C(F)(F)F)cc1)C(=O)OCc1ccccc1` (stereo not shown) [Compound 29] as the compound, how does the IC50 read?
Answer: 630 nM

Question: With `CC(=O)N1CCCC1(Cc1ccccc1C#N)C(=O)OCc1ccccc1` (stereo not shown) [Compound 35] as the compound, how does the IC50 read?
Answer: 5000 nM

Question: With `CC(=O)N1CCCC1(Cc1ccccc1)C(=O)OCc1ccccc1Cl` (stereo not shown) [Compound 49] as the compound, how does the IC50 read?
Answer: 6000 nM

Question: With `COc1ccc(CC2(C(=O)OCc3ccccc3)CCCN2C(C)=O)cc1C(F)(F)F` (stereo not shown) [Compound 39] as the compound, how does the IC50 read?
Answer: 50 nM

Question: With `CC(=O)N1CCCC1(Cc1ccccc1)C(=O)OCc1cccc(Cl)c1` (stereo not shown) [Compound 50] as the compound, how does the IC50 read?
Answer: 2500 nM

Question: For `CC(=O)N1CCCC1(Cc1cccc(C(F)(F)F)c1)C(=O)OCc1ccccc1` (stereo not shown) [Compound 37], which IC50 is on record?
Answer: 80 nM

Question: With `CC(=O)N1CCCC1(Cc1ccncc1)C(=O)OCc1ccccc1` (stereo not shown) [Compound 25] as the compound, how does the IC50 read?
Answer: 2000 nM

Question: How did the IC50 turn out when `CC(=O)N1CCCC1(Cc1ccccc1)C1=N[C@H](c2ccccc2)CO1` (stereo partly shown) [Compound 67] was run?
Answer: 1300 nM

Question: How did the IC50 turn out when `COC(=O)N1CCCC1(Cc1ccccc1)C(=O)OCc1ccccc1` (stereo not shown) [Compound 58] was run?
Answer: 400 nM

Question: How did the IC50 turn out when `COC(=O)C1(Cc2ccccc2)CCCN1C(C)=O` (stereo not shown) [Compound 44] was run?
Answer: > 100000 nM

Question: For `CC(=O)N1CCCC1(Cc1ccccc1)C(=O)OCc1ccc(C(F)(F)F)cc1` (stereo not shown) [Compound 53], which IC50 is on record?
Answer: 5000 nM

Question: For `CC(=O)N1CCCC1(Cc1ccc(F)cc1)C(=O)OCc1ccccc1` (stereo not shown) [Compound 30], which IC50 is on record?
Answer: 200 nM

Question: `CCN1CCCC1(Cc1ccccc1)C(=O)OCc1ccccc1` (stereo not shown) [Compound 56] was tested. Which IC50 did it give?
Answer: > 100000 nM

Question: For `CC(=O)N1CCCC1(Cc1ccccc1)C(=O)OCCc1ccccc1` (stereo not shown) [Compound 46], which IC50 is on record?
Answer: 10000 nM

Question: With `O=C1CCCC2CCC(Cc3ccccc3)(C(=O)OCc3ccccc3)N12` (stereo not shown) [Compound 69] as the compound, how does the IC50 read?
Answer: 1000 nM

Question: With `CCNC(=O)N1CCCC1(Cc1ccccc1)C(=O)OCc1ccccc1` (stereo not shown) [Compound 59] as the compound, how does the IC50 read?
Answer: 2000 nM

Question: With `O=C(c1ccccc1)N1CCCC1(Cc1ccccc1)C(=O)OCc1ccccc1` (stereo not shown) [Compound 62] as the compound, how does the IC50 read?
Answer: 4000 nM

Question: With `CC(=O)N1CCCC1(Cc1ccsc1)C(=O)OCc1ccccc1` (stereo not shown) [Compound 26] as the compound, how does the IC50 read?
Answer: 790 nM

Question: How did the IC50 turn out when `O=C(OCc1ccccc1)C1(Cc2ccccc2)CCCN1` (stereo not shown) [Compound 55] was run?
Answer: > 100000 nM

Question: With `CC(=O)N1CCCC1(Cc1cccc(S(C)(=O)=O)c1)C(=O)OCc1ccccc1` (stereo not shown) [Compound 36] as the compound, how does the IC50 read?
Answer: 250 nM

Question: Which IC50 does the source give for `CC(=O)N1CCCC1(Cc1ccccc1)C(=O)NCc1ccccc1` (stereo not shown) [Compound 41] here?
Answer: 100000 nM

Question: How did the IC50 turn out when `CC(=O)N1CCCC1(Cc1ccccc1)C(=O)OCc1ccc(C)cc1` (stereo not shown) [Compound 52] was run?
Answer: 790 nM

Question: For `CC(=O)N1CCCC1(Cc1ccc(S(C)(=O)=O)cc1)C(=O)OCc1ccccc1` (stereo not shown) [Compound 32], which IC50 is on record?
Answer: 1000 nM

Question: `CC(=O)N1CCCC1(Cc1ccccc1)C(=O)OCc1ccccc1` (stereo not shown) [Compound 66] was tested. Which IC50 did it give?
Answer: 20000 nM

Question: With `CCC1(C(=O)OCc2ccccc2)CCCN1C(C)=O` (stereo not shown) [Compound 23] as the compound, how does the IC50 read?
Answer: 2300 nM

Question: With `CC(=O)N1CCCC1(Cc1ccc(F)cc1C(F)(F)F)C(=O)OCc1ccccc1` (stereo not shown) [Compound 40] as the compound, how does the IC50 read?
Answer: 4000 nM

Question: How did the IC50 turn out when `CC(=O)N1CCCC1(Cc1ccccc1)C(=O)O` (stereo not shown) [Compound 43] was run?
Answer: > 100000 nM

Question: With `CC(=O)N1CCCC1(Cc1ccccc1)C(=O)N(C)Cc1ccccc1` (stereo not shown) [Compound 42] as the compound, how does the IC50 read?
Answer: 32000 nM

Question: Which IC50 does the source give for `CC(=O)N1CCCC1(Cc1ccccc1)C(=O)OCC1CCCCC1` (stereo not shown) [Compound 47] here?
Answer: 63000 nM

Source: patent US20250281467A1, “MODULATORS OF INTRACELLULAR CHLORIDE CONCENTRATION FOR USE IN THE TREATMENT OF COGNITIVE DECLINE” (FONDAZIONE ISTITUTO ITALIANO DI TECNOLOGIA, priority 2022, published 2025)
